Measurements: patent US9686984B2, “Macrocyclic picolinamides as fungicides” (DOW AGROSCIENCES LLC, priority 2014, dated 2017)

Experiments:
Assay type in all cases: in vivo
[1] = test system: Rhyncosporium secalis; assay: Barley Scald (RHYNSE) disease control; details: 100 ppm, 1 Day Protectant
Description: (§1) Technical grades of materials were dissolved in acetone, which were then mixed with nine volumes of water containing 110 ppm Triton X-100. The fungicide solutions were applied onto wheat seedlings using an automated booth sprayer to run-off. All sprayed plants were allowed to air dry prior to further handling. All fungicides were evaluated using the aforementioned method for their activity vs. all target diseases, unless stated otherwise. Wheat leaf blotch and brown rust activity were also evaluated using track spray applications, in which case the fungicides were formulated as EC formulations, containing 0.1% Trycol 5941 in the spray solutions. Wheat plants (variety Yuma) were grown from seed in a greenhouse in 50% mineral soil/50% soil-less Metro mix until the first leaf was fully emerged, with 7-10 seedlings per pot. These plants were inoculated with an aqueous spore suspension of Septoria tritici either prior to or after fungicide treatments. After inoculation the plants were kept in 100% relative humidity (one day in a dark dew chamber followed by two to three days in a lighted dew chamber at 20° C.) to permit spores to germinate and infect the leaf. The plants were then transferred to a greenhouse set at 20° C. for disease to develop. When disease symptoms were fully expressed on the 1st leaves of untreated plants, infection levels were assessed on a scale of 0 to 100 percent disease severity. Percent disease control was calculated using the ratio of disease severity on treated plants relative to untreated plants. Example K: Evaluation of Fungicidal Activity: Barley Scald (Rhyncosporium secalis; Bayer Code […]) Barley seedlings (variety Harrington) were propagated in soil-less Metro mix, with each pot having 8 to 12 plants, and used in the test when first leaf was fully emerged. Test plants were inoculated by an aqueous spore suspension of Rhyncosporium secalis 24 hr after fungicide treatments. After inoculation the plants were kept in a dew room at 20° C. with 100% relative humidity for 48 hr. […]

[2] = test system: Blumeria graminis f. sp. hordei; assay: Barley Powdery Mildew (ERYSGH) disease control; details: 100 ppm, 1 Day Protectant
Description: as §1, with “J:” for “K:”, “Powdery Mildew (Blumeria graminis f. sp. hordei; Synonym: Erysiphe graminis f. sp. hordei;” for “Scald (Rhyncosporium secalis;”, “dusting with infected stock plants” for “an aqueous spore suspension of Rhyncosporium secalis”, “greenhouse set” for “dew room”, “C.” for “C. with 100% relative humidity”, “disease to develop.” for “48 hr.”

[3] = test system: Leptosphaeria nodorum; assay: Wheat Glume Blotch (LEPTNO) disease control; details: 100 ppm, 1 Day Protectant
Description: Technical grades of materials were dissolved in acetone, which were then mixed with nine volumes of water containing 110 ppm Triton X-100. The fungicide solutions were applied onto wheat seedlings using an automated booth sprayer to run-off. All sprayed plants were allowed to air dry prior to further handling. All fungicides were evaluated using the aforementioned method for their activity vs. all target diseases, unless stated otherwise. Wheat leaf blotch and brown rust activity were also evaluated using track spray applications, in which case the fungicides were formulated as EC formulations, containing 0.1% Trycol 5941 in the spray solutions. Wheat plants (variety Yuma) were grown from seed in a greenhouse in 50% mineral soil/50% soil-less Metro mix until the first leaf was fully emerged, with 7-10 seedlings per pot. These plants were inoculated with an aqueous spore suspension of Septoria tritici either prior to or after fungicide treatments. After inoculation the plants were kept in 100% relative humidity (one day in a dark dew chamber followed by two to three days in a lighted dew chamber at 20° C.) to permit spores to germinate and infect the leaf. The plants were then transferred to a greenhouse set at 20° C. for disease to develop. When disease symptoms were fully expressed on the 1st leaves of untreated plants, infection levels were assessed on a scale of 0 to 100 percent disease severity. Percent disease control was calculated using the ratio of disease severity on treated plants relative to untreated plants. Example C: Evaluation of Fungicidal Activity: Wheat Glume Blotch (Leptosphaeria nodorum; Bayer code […]) Wheat plants (variety Yuma) were grown from seed in a greenhouse in 50% mineral soil/50% soil-less Metro mix until the first leaf was fully emerged, with 7-10 seedlings per pot. These plants were inoculated with an aqueous spore suspension of Leptosphaeria nodorum 24 hr after fungicide treatments. […]

[4] = test system: Venturia inaequalis; assay: Apple Scab (VENTIN) disease control; details: 100 ppm, 1 Day Protectant
[5] = test system: Phakopsora pachyrhizi; assay: Asian Soybean Rust (PHAKPA) disease control; details: 25 ppm
Description: Example H: Evaluation of Fungicidal Activity: Asian Soybean Rust (Phakopsora pachyrhizi; Bayer Code […]) Technical grades of materials were dissolved in acetone, which were then mixed with nine volumes of water containing 0.011% Tween 20. The fungicide solutions were applied onto soybean seedlings using an automated booth sprayer to run-off. All sprayed plants were allowed to air dry prior to further handling. Soybean plants (variety Williams 82) were grown in soil-less Metro mix, with one plant per pot. Two weeks old seedlings were used for testing. Plants were inoculated either 3 days prior to or 1 day after fungicide treatments. Plants were incubated for 24 h in a dark dew room at 22° C. and 100% relative humidity then transferred to a growth room at 23° C. for disease to develop. Disease severity was assessed on the sprayed leaves.

[6] = test system: Uncinula necator; assay: Grape Powdery Mildew (UNCINE) disease control; details: 100 ppm, 1 Day Protectant

SMILES	RHYNSE disease control, 1DP [1]	ERYSGH disease control, 1DP [2]	LEPTNO disease control, 1DP [3]	VENTIN disease control, 1DP [4]	PHAKPA disease control, 1DP ([5]; 1 Day Protectant)	PHAKPA disease control, 3DC ([5]; 3 Day Curative)	UNCINE disease control, 1DP [6]
CCCC[C@H]1OCC[C@H](NC(=O)c2nccc(OC)c2OC(C)=O)C(=O)O[C@@H](C)[C@@H]1Cc1ccccc1 [Compound 2]	A (>70)	B (≦70)	A (>70)				
COc1ccnc(C(=O)N[C@H]2CCO[C@H](Cc3ccccc3)[C@@H](Cc3ccccc3)[C@H](C)OC2=O)c1OC(C)=O [Compound 3]	B (≦70)	B (≦70)	A (>70)				
CCC[C@H]1OCC[C@H](NC(=O)c2nccc(OC)c2OCOC(C)=O)C(=O)O[C@@H](C)[C@@H]1Cc1ccccc1 [Compound 17]	B (≦70)	B (≦70)	A (>70)	B (≦70)	A (>70)	A (>70)	A (>70)
